Measured values: publication PMC6437697 (Journal of Medicinal Chemistry, 2019)

What was measured:
Assay in all cases: KINOMEscan
Format in all cases: binding
Settings in all cases: read-out: % control activity remaining
[1] = biological target: T1, TBK1 (Homo sapiens, UniProt Q9UHD2)
T1 construct: purchased Eurofins DiscoverX KINOMEscan
T1 sequence (Q9UHD2 1-729): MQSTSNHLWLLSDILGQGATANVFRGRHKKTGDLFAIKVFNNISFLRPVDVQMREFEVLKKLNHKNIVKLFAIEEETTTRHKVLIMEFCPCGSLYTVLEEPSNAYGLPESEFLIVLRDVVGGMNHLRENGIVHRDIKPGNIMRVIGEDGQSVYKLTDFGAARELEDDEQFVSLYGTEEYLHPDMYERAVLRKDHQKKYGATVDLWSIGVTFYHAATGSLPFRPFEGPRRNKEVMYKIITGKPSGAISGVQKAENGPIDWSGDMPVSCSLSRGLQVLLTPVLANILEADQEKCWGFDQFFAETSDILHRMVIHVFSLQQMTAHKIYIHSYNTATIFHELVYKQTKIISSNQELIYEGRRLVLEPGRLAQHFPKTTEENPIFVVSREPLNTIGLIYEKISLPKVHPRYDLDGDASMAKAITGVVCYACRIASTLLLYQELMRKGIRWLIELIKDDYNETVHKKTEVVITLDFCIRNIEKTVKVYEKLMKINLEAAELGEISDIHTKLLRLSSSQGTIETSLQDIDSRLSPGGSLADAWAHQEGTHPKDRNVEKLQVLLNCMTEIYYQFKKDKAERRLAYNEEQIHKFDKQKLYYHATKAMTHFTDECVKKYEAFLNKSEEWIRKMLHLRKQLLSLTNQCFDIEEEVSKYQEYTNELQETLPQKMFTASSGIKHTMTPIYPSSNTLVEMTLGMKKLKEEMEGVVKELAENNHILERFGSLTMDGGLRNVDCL

[2] = biological target: T2, RPS6KA4(Kin.Dom.1-N-terminal) (Homo sapiens, UniProt O75676)
T2 construct: RPS6KA4(Kin.Dom.1-N-terminal); purchased Eurofins DiscoverX KINOMEscan
T2 sequence (O75676 33-301 limits assumed): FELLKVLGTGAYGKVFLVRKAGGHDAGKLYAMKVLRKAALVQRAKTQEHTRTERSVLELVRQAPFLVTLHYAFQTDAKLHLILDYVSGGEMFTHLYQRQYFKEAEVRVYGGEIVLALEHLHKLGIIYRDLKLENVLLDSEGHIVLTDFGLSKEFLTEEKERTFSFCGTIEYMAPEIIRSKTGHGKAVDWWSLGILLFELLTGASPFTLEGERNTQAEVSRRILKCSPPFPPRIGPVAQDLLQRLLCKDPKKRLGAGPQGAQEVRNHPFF

[3] = biological target: T3, TEC (Homo sapiens, UniProt P42680)
T3 construct: purchased Eurofins DiscoverX KINOMEscan
T3 sequence (P42680 1-631): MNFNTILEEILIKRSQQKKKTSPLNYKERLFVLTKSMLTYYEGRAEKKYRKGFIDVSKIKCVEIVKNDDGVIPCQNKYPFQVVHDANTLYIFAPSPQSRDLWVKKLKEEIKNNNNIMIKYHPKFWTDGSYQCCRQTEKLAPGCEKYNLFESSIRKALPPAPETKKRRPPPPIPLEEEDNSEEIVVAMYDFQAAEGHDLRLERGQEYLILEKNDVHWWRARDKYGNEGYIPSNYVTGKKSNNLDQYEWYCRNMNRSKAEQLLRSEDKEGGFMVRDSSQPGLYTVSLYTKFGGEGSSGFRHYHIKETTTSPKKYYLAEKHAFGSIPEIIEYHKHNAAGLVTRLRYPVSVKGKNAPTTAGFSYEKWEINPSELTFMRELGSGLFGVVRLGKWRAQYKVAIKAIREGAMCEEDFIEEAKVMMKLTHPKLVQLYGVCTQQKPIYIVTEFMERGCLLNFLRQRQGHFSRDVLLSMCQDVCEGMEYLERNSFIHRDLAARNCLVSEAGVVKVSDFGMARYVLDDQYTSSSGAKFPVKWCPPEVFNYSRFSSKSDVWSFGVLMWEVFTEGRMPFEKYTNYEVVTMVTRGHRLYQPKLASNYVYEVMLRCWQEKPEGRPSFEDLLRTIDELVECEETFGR

[4] = biological target: T4, MST3 (Homo sapiens, UniProt Q9Y6E0)
T4 construct: purchased Eurofins DiscoverX KINOMEscan

[5] = biological target: T5, PAK3 (Homo sapiens, UniProt O75914)
T5 construct: purchased Eurofins DiscoverX KINOMEscan

[6] = biological target: T6, BMPR1A (Homo sapiens, UniProt P36894)
T6 construct: purchased Eurofins DiscoverX KINOMEscan

[7] = biological target: T7, IKK-beta (Homo sapiens, UniProt O14920)
T7 construct: purchased Eurofins DiscoverX KINOMEscan
T7 sequence (O14920 1-756): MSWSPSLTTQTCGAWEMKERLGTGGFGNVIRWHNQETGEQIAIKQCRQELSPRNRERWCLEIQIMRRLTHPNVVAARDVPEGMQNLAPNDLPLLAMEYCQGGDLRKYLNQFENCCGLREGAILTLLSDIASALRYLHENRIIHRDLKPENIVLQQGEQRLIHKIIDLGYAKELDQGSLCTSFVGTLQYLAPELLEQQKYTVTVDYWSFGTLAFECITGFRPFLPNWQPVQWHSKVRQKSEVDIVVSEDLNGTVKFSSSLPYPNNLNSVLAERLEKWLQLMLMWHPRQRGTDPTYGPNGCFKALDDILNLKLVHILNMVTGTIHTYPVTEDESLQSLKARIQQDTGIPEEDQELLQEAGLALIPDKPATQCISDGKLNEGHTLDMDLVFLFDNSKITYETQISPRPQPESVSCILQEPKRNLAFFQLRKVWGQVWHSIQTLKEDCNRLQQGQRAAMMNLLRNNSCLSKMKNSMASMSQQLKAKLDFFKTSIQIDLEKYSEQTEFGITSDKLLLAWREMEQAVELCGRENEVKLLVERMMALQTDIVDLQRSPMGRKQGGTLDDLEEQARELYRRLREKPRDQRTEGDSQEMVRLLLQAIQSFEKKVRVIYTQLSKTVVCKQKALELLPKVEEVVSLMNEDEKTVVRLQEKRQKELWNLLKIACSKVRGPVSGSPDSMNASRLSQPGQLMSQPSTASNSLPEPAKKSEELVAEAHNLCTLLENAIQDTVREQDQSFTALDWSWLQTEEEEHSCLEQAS

T6 sequence (P36894 24-532): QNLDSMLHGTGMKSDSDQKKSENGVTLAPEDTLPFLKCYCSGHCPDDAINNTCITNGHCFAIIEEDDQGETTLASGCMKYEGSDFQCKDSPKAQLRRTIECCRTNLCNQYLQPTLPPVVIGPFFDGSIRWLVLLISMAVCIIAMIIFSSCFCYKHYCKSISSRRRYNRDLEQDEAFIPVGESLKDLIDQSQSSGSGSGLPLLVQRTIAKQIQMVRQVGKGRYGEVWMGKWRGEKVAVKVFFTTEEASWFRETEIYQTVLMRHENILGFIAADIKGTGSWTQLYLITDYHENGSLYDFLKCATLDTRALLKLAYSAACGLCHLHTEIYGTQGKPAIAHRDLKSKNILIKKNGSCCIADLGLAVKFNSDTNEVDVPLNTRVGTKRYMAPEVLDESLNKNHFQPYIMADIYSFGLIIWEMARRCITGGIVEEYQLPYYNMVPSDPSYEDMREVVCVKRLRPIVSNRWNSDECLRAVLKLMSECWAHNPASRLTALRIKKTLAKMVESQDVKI
T5 sequence (O75914 whole entry): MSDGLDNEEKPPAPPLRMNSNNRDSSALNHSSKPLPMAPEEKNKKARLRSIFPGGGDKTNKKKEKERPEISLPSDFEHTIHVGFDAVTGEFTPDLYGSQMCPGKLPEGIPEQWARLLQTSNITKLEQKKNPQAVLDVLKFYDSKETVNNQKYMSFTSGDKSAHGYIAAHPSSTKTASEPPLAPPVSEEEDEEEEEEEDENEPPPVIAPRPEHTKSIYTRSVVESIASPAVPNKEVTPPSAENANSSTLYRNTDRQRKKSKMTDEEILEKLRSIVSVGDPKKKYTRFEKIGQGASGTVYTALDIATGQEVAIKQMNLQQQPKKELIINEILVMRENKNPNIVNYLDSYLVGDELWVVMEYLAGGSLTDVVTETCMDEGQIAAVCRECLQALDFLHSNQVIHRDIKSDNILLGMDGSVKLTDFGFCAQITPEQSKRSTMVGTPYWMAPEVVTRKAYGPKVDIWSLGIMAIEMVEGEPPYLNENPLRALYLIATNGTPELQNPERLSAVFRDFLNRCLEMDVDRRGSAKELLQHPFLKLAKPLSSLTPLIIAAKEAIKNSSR
T4 sequence (Q9Y6E0 whole entry): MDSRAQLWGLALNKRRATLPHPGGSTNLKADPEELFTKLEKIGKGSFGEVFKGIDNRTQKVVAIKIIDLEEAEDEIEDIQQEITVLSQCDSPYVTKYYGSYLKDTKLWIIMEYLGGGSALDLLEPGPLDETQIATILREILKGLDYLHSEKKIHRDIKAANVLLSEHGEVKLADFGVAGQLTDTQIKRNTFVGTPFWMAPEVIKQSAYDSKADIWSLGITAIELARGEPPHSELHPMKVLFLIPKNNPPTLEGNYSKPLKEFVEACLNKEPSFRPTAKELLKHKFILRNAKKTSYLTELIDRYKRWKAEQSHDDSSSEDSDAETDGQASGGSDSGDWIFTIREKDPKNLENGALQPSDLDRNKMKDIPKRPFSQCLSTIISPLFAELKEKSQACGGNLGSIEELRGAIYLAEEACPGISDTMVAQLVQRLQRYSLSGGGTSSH

Structure (SMILES) | remaining binding at 1 µM [1] [%] | remaining binding at 1 µM [2] [%] | remaining binding at 1 µM [3] [%] | remaining binding at 1 µM [4] [%] | remaining binding at 1 µM [5] [%] | remaining binding at 1 µM [6] [%] | remaining binding at 1 µM [7] [%]
Clc1cc(NCC2CC2)c2ncc(-c3ccc4[nH]ncc4c3)n2n1 [compound 2, 6-Chloro-N-(cyclopropylmethyl)-3-(1H-indazol-5-yl)imidazo[1,2-b]pyridazin-8-amine] | 71 | 100 | 100 | 100 | 63 | 95 | 83
O=C(CN1CCOCC1)N[C@H]1CC[C@H](Nc2cc(Cl)nn3c(-c4ccc5[nH]ncc5c4)cnc23)CC1 [compound 26] | 90 | 99 | 97 | 91 | 81 | 86 | 94
CN1CCC(CNc2cc(Cl)nn3c(-c4cc5nc(Nc6ccccc6)[nH]c5cc4F)cnc23)CC1 [compound 31, 6-Chloro-3-(6-fluoro-2-(phenylamino)-1H-benzo[d]imidazol-5-yl)-N-((1-methylpiperidin-4-yl)methyl)imidazo[1,2-b]pyridazin-8-amine] | 76 | 91 | 88 | 92 | 100 | 100 | 90
